Assay results as given in patent US20250205182A1, “COMPOSITIONS AND METHODS FOR IMPROVING GUT PERMEABILITY” (BRIGHTSEED, INC., priority 2022, published 2025).
“Also recorded” adds a separate entry of the source.

Tested on: human transverse colon epithelial cells
Experiment: Transepithelial electrical resistance (TEER) of transverse colon monolayers treated with TNFα
Type: cell-based
Settings: for change in TEER as a result of TNF administration: with TNFα, 10, 20, 40 μM, after 48 hours, relative to t=0; for TEER: with TNF
Excerpt: Cell Information: Donor 5 Transverse Colon, HISC-0033, Passage 10. Plated onto 4×96-well RepliGut® transwell plates coated with thin hydrogel coating. 2× RepliGut® transwell plates had 1.0 μm pore size (Corning 3380) and 2× RepliGut® transwell plates had 0.4 μm pore size (Corning 7369).
Compound Information: TNFα was supplied by Allis Biosystems and reconstituted according to the manufacturer's instructions. All other compounds were provided by Brightseed in DMSO (Table 1). Stocks were created for each treatment (Table 2) so that the final concentration of an individual compound in the culture media was 0.1% media volume for all compounds.
Proliferative human transverse colon epithelial cells were plated in Altis Expansion media using Altis-established protocols onto 4×96-well RepliGut® transwell plates coated with a thin layer of hydrogel. Cultures were monitored every day using a bright field microscope. Transverse colon epithelial monolayers became confluent on Day 4, at which point media was changed to Altis Differentiation media. The cells were cultured for an additional 2 days. Brightseed compounds and TNFα, listed in Table 2, were diluted in Altis Differentiation media, mixed well, and added to apical and basal compartment of transwell cultures at t=0 hours. All conditions were performed in triplicate. Cells were treated with compounds for a total of 48 hours.
Transepithelial electrical resistance was measured in all transwell cultures at t=0 hours prior to the addition of compounds to determine baseline TEER using an Epithelial Volt/Ohm Meter (World Precision Instruments, EVOM2) and STX100C96 Electrode. TEER was also measured at t=24 hours, t=45 hours, and t=48 hours. The surface area of a 96-well transwell is 0.143 cm^2 per well. Corrected TEER was calculated using the formula below.
(Raw measured TEER of sample transwell−Raw measured TEER of blank transwell)×Surface Area
Statistical analysis was performed using GraphPad Prism software version 9.4.1 (GraphPad Inc., La Jolla, CA, USA). Two-way ANOVA of means from n=3 samples per group was performed to measure simple effects within treatment groups. Tukey's range test was performed to correct for multiple comparisons. Differences between the groups were considered significant at p<0.05.

[1] = FIGS. 1-12 (TEER and permeability)

SMILES | optimal concentration of the study [1] [µM] | rank of effect among the test articles [1] | change in TEER as a result of TNF administration | change in TEER as a result of TNF administration (listed as NCT) | TEER (10 μM) | TEER (20 and 40 μM) | change in TEER as a result of TNF administration (listed as NFT)
O=C(/C=C/c1ccc(O)c(O)c1)NCCc1ccc(O)cc1 [Compound 1, N-trans-caffeoyltyramine] | 40 | greatest effect | dose-dependent and statistically significant reversal of this decrease | improved the change in TEER as a result of TNF administration in a dose-dependent manner; also recorded: protected against (a) decreased TEER |  |  | 
COc1cc(/C=C/C(=O)NCCc2ccc(O)cc2)ccc1O [Compound 2, N-trans-feruloyltyramine] |  |  | dose-dependent and statistically significant reversal of this decrease |  | improved TEER | did not show the same dose-dependent effect | protected against (a) decreased TEER
